Experimental data: patent publication US7018999B2, “Methods for the treatment and prevention of pain” (Cephalon, Inc., priority 2001, dated 2006)

Tested on: formalin-induced behavioral response
Assay: formalin-induced behavioral response model (flinching/shaking, licking/biting; phase I and phase II)
[1] = dose 3 mg/kg subcutaneously two hours prior to formalin administration

| SMILES | % Inhibition of Phase II [1] [%] | further results |
| --- | --- | --- |
| CC(C)Oc1ccc2c(c1)CCc1c-2c2c(c3c4ccccc4n(CCO)c13)CNC2=O [IX] | 37 ± 3 |  |
| CC(C)Oc1ccc2c(c1)CCc1c-2c2c(c3c1[nH]c1ccc(F)cc13)CNC2=O [VIII] |  | % Inhibition of Phase II (dose 1 mg/kg subcutaneously two hours prior to formalin administration): 29 ± 4% |
| C[C@]1(O)C[C@H]2O[C@]1(C)n1c3ccccc3c3c4c(c5c6ccccc6n2c5c31)C(=O)NC4 [XIII] | 29 ± 5 |  |
| O=C1NCc2c1c1c3c4c2c2ccccc2n4C2CC[C@H](O2)C3c2ccccc2-1 (stereo partly drawn) [XIV] | 34 ± 3 |  |
| COc1ccc2c(c1)Cc1c-2c2c(c3c4ccccc4n(CCO)c13)CNC2=O [XVI] | 22 ± 6 |  |
| CCOCc1ccc2c(c1)c1c3c(c4c(c1n2CCCO)Cc1ccccc1-4)C(=O)NC3 [XV] |  | % Inhibition of Phase II (dose 10 mg/kg subcutaneously two hours prior to formalin administration): 19 ± 3% |
